According to article PMC6941357, “An in vitro toolbox to accelerate anti-malarial drug discovery and development” (Malaria Journal, 2020):
“And” between values parts separate entries of the source, which are not always exact repeats. Identical values can stand only once. Like-named read-outs stand apart in the source and are kept apart here. Marks after values point to notes of the source that are not given here.

Tests used:
10% FCS in DMEM = experiment: Binding in DMEM with 10% FCS via ultracentrifugation; format: in vitro ADME, calf
Protocol: Dulbecco’s Modified Eagle’s Medium (DMEM) containing GlutaMAX-I was purchased from Invitrogen (Thermo Fisher Scientific) and stored at 4 °C. Medium was prepared by adding heat inactivated foetal calf serum (FCS, final 10% v/v), penicillin (final 100 U/mL), streptomycin (final 100 µg/mL) D-glucose (final 4.0 mg/mL) and sodium pyruvate (final 0.1 mg/mL).
An ultracentrifugation method adapted from a previous publication was initially used to assess plasma protein binding and binding in the other media. […] Additional ultracentrifuge tubes containing spiked matrix were maintained at 37 °C, 5% or 10% CO2 or normal atmosphere conditions, with aliquots being taken within 0.5 h of the start and at the end of ultracentrifugation to serve as controls for the assessment of stability and to obtain a measure of the total concentration (Ctotal). Following ultracentrifugation, the pH was checked and an aliquot of protein-free supernate was taken from each ultracentrifuge tube for determination of the unbound concentration (Cunbound).
Total matrix and protein free samples were analysed using a matrix matching approach whereby each sample was mixed in a 1:1 ratio with the opposite blank medium (i.e. blank total matrix or blank protein free buffer). For example, plasma samples were mixed with blank pH 7.4 buffer whereas plasma supernatant samples were mixed with blank plasma. Each of the sample sets were then assayed against a common calibration curve prepared in a 1:1 mixture of total matrix and protein free pH 7.4 buffer. […] The standard deviation for fu was calculated using the propagation of errors approach as described previously. The potential for compound degradation was assessed by comparing the average value for Ctotal at the start and end of the experiment.

human plasma [1] = experiment: Plasma protein binding via ultracentrifugation (UC); format: in vitro ADME; settings: ultracentrifugation, neat plasma
Method in brief: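 Pooled human plasma (3–4 donors) spiked and ultracentrifuged; protein-free supernate gave Cunbound, parallel tubes kept at 37 °C gave Ctotal and stability (start vs end). Samples matrix-matched 1:1 with opposite blank and quantified against a common calibration curve; fu SD by error propagation.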

human plasma [2] = experiment: Plasma protein binding via rapid equilibrium dialysis (RED), 10% plasma; format: in vitro ADME; settings: RED, 10% plasma corrected for dilution
Protocol: Pooled human plasma (n = 3–4 donors) was obtained by centrifugation of blood (collected by the Australian Red Cross Blood Service, Melbourne, Australia or the Volunteer Blood Donor Registry, Clinical Translation Centre, Walter & Eliza Hall Institute of Medical Research, Parkville, Australia), or sourcing pooled plasma directly from commercial sources (Innovative Research Inc, MI) and stored frozen at − 80 °C.
Plasma was diluted 1:10 with pH 7.4 phosphate buffer (prepared by mixing 0.1 M sodium dihydrogen phosphate and 0.1 M disodium hydrogen phosphate (both containing 0.04 M NaCl) to pH 7.4) and spiked with compound to achieve a total measured concentration of ~ 1000–3000 ng/mL. Diluted plasma was vortex mixed briefly and aliquots (n = 3–4) were transferred to RED (Thermo Fisher Scientific, Waltham, MA) units that were placed at 37 °C under ambient atmosphere on a plate shaker. […] At the end of the dialysis period, samples were removed from both the donor and dialysate chambers of the RED units. […] Fraction unbound values were calculated for each individual RED unit and the mean and SD calculated for n = 3–4 replicates.
Briefly, the RED device was exposed for two 30 min periods and one overnight period to fresh solutions of compound prepared in pH 7.4 buffer at approximately 10% of the total dialysis concentration. Following the preincubations, solutions were removed from the RED device and discarded. […] Samples were removed and analysed as described above.
For binding assessments using 10% plasma, the unbound fraction (fu) in neat plasma was calculated using the average values for Ctotal and Cunbound and Eq.

human liver microsomes [3] = experiment: in vitro; settings: for HLM CLint: human, microsomes
Method in brief: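 Compound depletion in human liver microsomes was followed by LC–MS at 2–60 min, with cofactor-free controls. First-order depletion rate constants gave in vitro CLint (µL/min/mg protein), corrected to unbound CLint using measured microsomal fu.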

[4] = Ionization constants by potentiometric titration; format: physicochemical; settings: mean ± SD, n = 3 titrations
Method in brief: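 Glass electrode calibrated at pH 2, 4, 7 and 10; reagents standardized against potassium hydrogen phthalate, titrants protected from CO2. Samples diluted 1:10 with water in the titration vessel, typical final compound concentration 0.5 mM.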

Caco-2 cell monolayers = settings: cited from earlier work
human liver microsomes [5] = experiment: Binding to human liver microsomes via ultracentrifugation; format: in vitro ADME; settings: 0.4 mg/mL protein
Method in brief: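 Unbound fraction by ultracentrifugation: Cunbound measured in protein-free supernate, Ctotal from spiked tubes held at 37 °C, sampled at start and end to check degradation. Matrix was 0.4 mg/mL human liver microsomal protein, 0.1 M phosphate pH 7.4; matrix-matched analysis against one calibration curve.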

[6] = matrix: pH 7.4 buffer, ref 31 (quinine), 78 (DSM421)
[7] = presaturation of device and 24 h dialysis
[8] = matrix: human plasma, corrected for fu

Structure (SMILES) | Fraction unbound, 10% FCS in DMEM (10% FCS in DMEM) | Fraction unbound, human plasma (human plasma [1]) | Fraction unbound, human plasma (human plasma [2]; 6 h dialysis) | HLM CLint (human liver microsomes [3]) | Unbound CLint (human liver microsomes [3]) | Measured pKa ([4]; basic pKa (B)) | A–B Papp (Caco-2 cell monolayers; [6]) | B–A Papp (Caco-2 cell monolayers; [6]) | efflux ratio (Caco-2 cell monolayers; [6]) | Fraction unbound, human plasma (human plasma [2]; [7]) | Fraction unbound, HLM (human liver microsomes [5]) | Measured pKa ([4]; acidic pKa (A)) | Literature ER (Caco-2 cell monolayers; Caco-2, ref [33], [35] of Additional file 1) | Literature Papp (Caco-2 cell monolayers; Caco-2 A-B, ref [33]–[35] of Additional file 1) | A–B Papp (Caco-2 cell monolayers; [8]) | B–A Papp (Caco-2 cell monolayers; [8]) | efflux ratio (Caco-2 cell monolayers; matrix: human plasma)
Cc1cc(Nc2ccc(C(F)(F)F)nc2)n2nc(C(C)(F)F)nc2n1 [DSM421] | 0.615 ± 0.043 | 0.039 ± 0.007 | 0.035 (0.0044) | < 7^b µL/min/mg | < 9.09^c µL/min/mg | no ionizations could be detected | 33 ± 2.5 10^−6 cm/s | 46 10^−6 cm/s | 1.4 | – | – | – | – | – | – | – | –
CN(C)C[c-]1cccc1CNc1ccnc2cc(Cl)ccc12.[Fe+2].c1cc[cH-]c1 (stereo not drawn) [Ferroquine] | 0.364 ± 0.026 | 0.070 (0.0080) | – | 29.2 µL/min/mg | 108 µL/min/mg | – | – | – | – | 0.041 ± 0.0010^c | 0.27 ± 0.032 | – | – | – | – | – | –
CC(C)(C)NCc1cc(Nc2ccnc3cc(Cl)ccc23)c2c(c1O)CCCC2 [Naphthoquine] | – | 0.030 (0.0020) | 0.019 (0.0010) | 14.4 µL/min/mg | 68.6 µL/min/mg | – | – | – | – | 0.018 ± 0.0010^c | 0.21 ± 0.015 | – | 0.8 | 27.3 ± 0.6 10-6 cm/sec | 230 ± 32 10^−6 cm/s | 180 ± 10 10^−6 cm/s | 0.8 and 0.78
CCc1nc(N)nc(N)c1OCCCOc1ccccc1CCC(=O)O.Cl [P218] | 0.684 ± 0.017 | 0.13 ± 0.013 | – | < 7^b µL/min/mg | < 7.95^c µL/min/mg | 7.3 ± 0.003 | – | – | – | – | 0.88 ± 0.041 | 4.9 ± 0.002 | – | – | – | – | –
CS(=O)(=O)O.FC1CCN(CCOc2ccc(C3CCC4(CC3)OOC3(OO4)C4CC5CC(C4)CC3C5)cc2)CC1 (stereo not drawn) [TDD-E209] | – | 0.094 (0.011) | < 0.0001 | – | 85,000 µL/min/mg | – | – | – | – | < 0.0001^c | 0.0003 ± 0.000010 | – | – | – | – | – | –

Second part, led by results:

Fraction unbound, 10% FCS in DMEM (10% FCS in DMEM) | Fraction unbound, human plasma (human plasma [1]) | Fraction unbound, human plasma (human plasma [2]; 6 h dialysis) | HLM CLint (human liver microsomes [3]) | Structure (SMILES) | Unbound CLint (human liver microsomes [3]) | Measured pKa ([4]; basic pKa (B)) | A–B Papp (Caco-2 cell monolayers; [6]) | B–A Papp (Caco-2 cell monolayers; [6]) | efflux ratio (Caco-2 cell monolayers; [6]) | Fraction unbound, human plasma (human plasma [2]; [7]) | Fraction unbound, HLM (human liver microsomes [5]) | Measured pKa ([4]; acidic pKa (A)) | Literature ER (Caco-2 cell monolayers; Caco-2, ref [33], [35] of Additional file 1) | Literature Papp (Caco-2 cell monolayers; Caco-2 A-B, ref [33]–[35] of Additional file 1) | A–B Papp (Caco-2 cell monolayers; [8]) | B–A Papp (Caco-2 cell monolayers; [8]) | efflux ratio (Caco-2 cell monolayers; matrix: human plasma)
0.001 ± 0.001 | 0.011 (0.0020) | < 0.0001 | < 7^b µL/min/mg | COc1cc2[nH]c(C)c(-c3ccc(Oc4ccc(OC(F)(F)F)cc4)cc3)c(=O)c2cc1Cl [ELQ300] | < 3500^c µL/min/mg | – | – | – | – | 0.00010 ± 0.000010^c | 0.002 ± 0.00010 | – | – | – | – | – | –
0.227 ± 0.012 | 0.071 | 0.0011 (0.0002) | 9.50 µL/min/mg | CC(C)(C)NCc1cc(C(C)(C)C)cc(-c2cnc(C(F)(F)F)c(F)c2)c1O [JPC3210] | 328 µL/min/mg | – | – | – | – | – | 0.029 ± 0.0030 | 5.3 ± 0.04 (A) | – | – | – | – | –
0.638 ± 0.065 | 0.34 (0.021) | 0.24 ± 0.0020^b | 11.1 µL/min/mg | O=C(NCCN1CCCC1)c1cc(-c2ccc(CN3CCOCC3)cc2)nc2ccc(F)cc12 [M5717] | 22.2 µL/min/mg | – | – | – | – | – | 0.50 ± 0.041 | – | – | – | – | – | –
0.043 ± 0.004 | 0.046 (0.0090) | < 0.0003 | < 7^b µL/min/mg | COc1cc(N[C@H](C)CCCN)c2nccc(C)c2c1Oc1ccc(Cl)c(Cl)c1 [NPC1161B] | – | – | – | – | – | 0.00074 ± 0.00016^c | – | – | – | – | – | – | –
